According to patent US20230219965A1 (KSQ Therapeutics, Inc., priority 2020, published 2023):
Read-outs that look alike come from different tables or passages of the source.

Legend:
USP1/UAF1 enzyme = USP1/UAF1 enzyme (Homo sapiens, UniProt O94782); test: USP1/UAF1 deubiquitination assay (ubiquitin-rhodamine 110 substrate); format: biochemical; conditions: read-out: USP1 IC50 (Ub-Rho)
How it was run: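 0.05 nM USP1/UAF1 was preincubated 10 min with compounds (dose response from 10 μM) in 50 mM Tris-HCl pH 7.8, 0.5 mM EDTA, 0.01% BSA, 1 mM DTT, 0.01% Tween-20. 150 nM ubiquitin-rhodamine 110 started the reaction, read kinetically 30 min at Ex480/Em540; IC50 by four-parameter fit versus no-enzyme and DMSO controls.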

[1] = system: Ub-PCNA levels in the nucleus of ES2 cells (USP1 activity); test: ES2 Ub-PCNA immunofluorescence (IF) assay; format: cell-based; conditions: Homo sapiens, ES-2; ES2 cells, 3 hours, Ub-PCNA immunofluorescence; read-out: USP1 IC50 (Ub-PCNA)
How it was run: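 Cells plated overnight, then compound-treated for 3 h at 37° C (0.3% DMSO final), methanol-fixed and stained with anti-Ub-PCNA plus DAPI. Per-nucleus Ub-PCNA intensity imaged; cells above the 95% cutoff of untreated wells counted as positive, and percent positive cells used to derive AC50.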

[2] = ADME solubility determination in PBS at pH 2.0 and pH 7.4; format: physicochemical; conditions: phosphate buffered saline, 25 °C, thermodynamic from solid
How it was run: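 Dried 10 mM DMSO stock residues taken up in PBS pH 7.4 or pH 2.0, shaken 24 h at 25° C. After centrifugation, supernatant quantified by LC-MS/MS against a standard of known concentration, with a dilution factor applied.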

[3] = Liver microsomal metabolic stability, rat liver microsomes (RLM); conditions: rat, liver microsomes, t1/2 (min) in RLM, 1 μM compound, 1 mg/mL microsomes, NADPH
[4] = Liver microsomal metabolic stability, human liver microsomes (HLM); conditions: human, liver microsomes
[5] = pH 2, aqueous buffer, PBS pH 2.0, 25° C., read-out: Solubility at pH 2.0
[6] = pH 7.4, aqueous buffer, PBS pH 7.4, 25° C., read-out: Solubility at pH 7.4

Sequence of USP1/UAF1 enzyme (O94782 whole entry): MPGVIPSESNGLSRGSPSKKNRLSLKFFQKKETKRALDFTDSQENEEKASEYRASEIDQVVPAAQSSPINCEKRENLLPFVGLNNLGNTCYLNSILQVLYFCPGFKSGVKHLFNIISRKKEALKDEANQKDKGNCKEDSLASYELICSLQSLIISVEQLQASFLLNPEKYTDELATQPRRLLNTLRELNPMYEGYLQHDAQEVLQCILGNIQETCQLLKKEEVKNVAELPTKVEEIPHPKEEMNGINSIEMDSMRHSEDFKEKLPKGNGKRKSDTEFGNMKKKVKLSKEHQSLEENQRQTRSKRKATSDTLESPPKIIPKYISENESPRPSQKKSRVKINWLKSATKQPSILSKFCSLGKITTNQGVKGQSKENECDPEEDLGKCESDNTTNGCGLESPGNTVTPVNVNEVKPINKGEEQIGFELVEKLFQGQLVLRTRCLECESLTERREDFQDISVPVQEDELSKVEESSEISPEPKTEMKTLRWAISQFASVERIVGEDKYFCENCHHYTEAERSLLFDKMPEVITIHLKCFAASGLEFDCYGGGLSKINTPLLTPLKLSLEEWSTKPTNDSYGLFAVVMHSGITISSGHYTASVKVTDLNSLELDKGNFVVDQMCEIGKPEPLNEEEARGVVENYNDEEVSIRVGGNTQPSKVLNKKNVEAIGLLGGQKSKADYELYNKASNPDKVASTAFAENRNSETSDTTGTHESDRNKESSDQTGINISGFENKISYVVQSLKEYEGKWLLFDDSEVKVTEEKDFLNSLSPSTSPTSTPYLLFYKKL
Sequence of USP1/UAF1 enzyme (Q8TAF3 whole entry partner): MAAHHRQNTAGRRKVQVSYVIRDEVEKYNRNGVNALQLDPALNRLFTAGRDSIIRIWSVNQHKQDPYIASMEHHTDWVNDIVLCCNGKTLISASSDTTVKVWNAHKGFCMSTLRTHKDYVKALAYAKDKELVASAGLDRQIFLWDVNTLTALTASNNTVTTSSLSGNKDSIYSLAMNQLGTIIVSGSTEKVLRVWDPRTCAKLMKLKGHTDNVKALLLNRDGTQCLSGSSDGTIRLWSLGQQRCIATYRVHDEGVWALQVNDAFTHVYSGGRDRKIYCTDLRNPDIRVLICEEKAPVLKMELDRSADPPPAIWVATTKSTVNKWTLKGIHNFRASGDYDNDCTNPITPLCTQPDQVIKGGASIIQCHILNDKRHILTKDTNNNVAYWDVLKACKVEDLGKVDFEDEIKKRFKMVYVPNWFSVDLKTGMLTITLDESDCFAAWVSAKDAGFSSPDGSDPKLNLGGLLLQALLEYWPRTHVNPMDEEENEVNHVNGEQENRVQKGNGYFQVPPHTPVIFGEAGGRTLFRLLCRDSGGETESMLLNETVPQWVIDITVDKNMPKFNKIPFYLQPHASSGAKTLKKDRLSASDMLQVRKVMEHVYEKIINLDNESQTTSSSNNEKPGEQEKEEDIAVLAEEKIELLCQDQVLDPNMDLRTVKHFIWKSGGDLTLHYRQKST

| Compound | IC50 (USP1/UAF1 enzyme) [µM] | IC50 [1] [µM] | solubility at 24 h [2, 5] [µM] | solubility at 24 h [2, 6] [µM] | half-life at 1 μM [3] [min] | half-life at 1 μM [4] [min] |
| --- | --- | --- | --- | --- | --- | --- |
| COc1cc(CN2C(=O)CCn3nc(-c4c(Cl)cnn4C(C)C)cc32)ccc1-c1nc(C(F)(F)F)cn1C(C)C [Example 109] | < 0.1 | < 0.1 | < 10 | < 10 | > 25 | > 25 |
| CCn1cc(C(F)(F)F)nc1-c1ccc(CN2C(=O)CCn3nc(-c4c(Cl)cnn4C(C)C)cc32)cn1 [Example 111] | < 0.1 | 0.1 to 0.5 | < 10 | < 10 | > 25 | > 25 |
| CCn1cc(C(F)(F)F)nc1-c1ccc(C(C)N2C(=O)CCn3nc(-c4c(Cl)cnn4C(C)C)cc32)cc1 (stereo not drawn) [Example 113] | < 0.1 | < 0.1 | < 10 | < 10 | < 25 | < 25 |
| CCn1cc(C(F)(F)F)nc1-c1ccc(C(C)N2C(=O)CCn3nc(-c4c(OC)ncnc4C4CC4)cc32)cc1 (stereo not drawn) [Example 114] | < 0.1 | 0.1 to 0.5 | ≥ 10 | ≥ 10 | < 25 | > 25 |
| CCOc1cc(C(F)(F)F)nn1-c1ccc(CN2C(=O)CCn3nc(-c4c(Cl)cnn4C(C)C)cc32)cc1 [Example 115] | < 0.1 | < 0.1 | < 10 | < 10 | > 25 | > 25 |
| CC(C)n1ncc(Cl)c1-c1cc2n(n1)CCC(=O)N2Cc1ccc(-c2cn(C)c(C(F)(F)F)n2)cc1 [Example 116] | < 0.1 | 0.1 to 0.5 | < 10 | < 10 | > 25 | > 25 |
| CCn1cc(Cl)nc1-c1ccc(CN2C(=O)CCn3nc(-c4c(Cl)cnn4C(C)C)cc32)cc1 [Example 118] | < 0.1 | < 0.1 | < 10 | < 10 | < 25 | < 25 |
| CCn1cc(C(F)(F)F)nc1-c1ccc(C(C)N2C(=O)CCn3nc(-c4c(Cl)cnn4C(C)C)cc32)cc1F (stereo not drawn) [Example 119] | < 0.1 | < 0.1 | < 10 | < 10 | < 25 | > 25 |
| CCn1cc(C(F)(F)F)nc1-c1ccc(C(C)N2C(=O)CCn3nc(-c4c(OC)ncnc4C4CC4)cc32)cc1F (stereo not drawn) [Example 120] | < 0.1 | < 0.1 | < 10 | < 10 | > 25 | > 25 |
| COc1ncnc(C2CC2)c1-c1cc2n(n1)CCC(=O)N2[C@@H](C)c1ccc(-c2nc(C(F)(F)F)cn2C(C)C)cc1 [Example 122] | 0.1 to 0.5 | > 0.5 | ≥ 10 | < 10 | > 25 | > 25 |
| COc1ncnc(C2CC2)c1-c1cc2n(n1)CCC(=O)N2[C@H](C)c1ccc(-c2nc(C(F)(F)F)cn2C(C)C)cc1 [Example 123] | < 0.1 | < 0.1 | ≥ 10 | < 10 | > 25 | > 25 |
| CCn1cc(C(F)(F)F)nc1-c1ccc([C@H](C)N2C(=O)CCn3nc(-c4c(OC)ncnc4C4CC4)cc32)cc1 [Example 124] | 0.1 to 0.5 | > 0.5 | ≥ 10 | ≥ 10 | < 25 | < 25 |
| CCn1cc(C(F)(F)F)nc1-c1ccc([C@@H](C)N2C(=O)CCn3nc(-c4c(OC)ncnc4C4CC4)cc32)cc1 [Example 125] | < 0.1 | < 0.1 | ≥ 10 | < 10 | > 25 | > 25 |
| COc1cc([C@@H](C)N2C(=O)CCn3nc(-c4c(OC)ncnc4C4CC4)cc32)ccc1-c1nc(C(F)(F)F)cn1C(C)C [Example 129] | < 0.1 | < 0.1 | ≥ 10 | < 10 | < 25 | > 25 |
| CCn1cc(C(F)(F)F)nc1-c1ccc(CN2C(=O)CCn3nc(-c4c(Cl)cnn4[C@H](C)COC)cc32)cc1F [Example 131] | < 0.1 | < 0.1 | < 10 | < 10 | < 25 | < 25 |

More lines, now with the values ahead:

| IC50 (USP1/UAF1 enzyme) [µM] | IC50 [1] [µM] | solubility at 24 h [2, 5] [µM] | solubility at 24 h [2, 6] [µM] | half-life at 1 μM [3] [min] | half-life at 1 μM [4] [min] | Compound |
| --- | --- | --- | --- | --- | --- | --- |
| < 0.1 | < 0.1 | < 10 | < 10 | < 25 | < 25 | CCn1cc(C(F)(F)F)nc1-c1ccc(CN2C(=O)CCn3nc(-c4c(Cl)cnn4[C@@H](C)COC)cc32)cc1F [Example 132] |
| < 0.1 | 0.1 to 0.5 | < 10 | < 10 | > 25 | > 25 | CC(C)n1ncc(Cl)c1-c1cc2n(n1)CCC(=O)N2Cc1ccc(-c2nn(C)cc2C#N)cc1 [Example 133] |
| < 0.1 | < 0.1 | < 10 | < 10 | < 25 | < 25 | COc1cc(C)nn1-c1ccc(CN2C(=O)CCn3nc(-c4c(Cl)cnn4C(C)C)cc32)cc1 [Example 135] |
| < 0.1 | 0.1 to 0.5 | < 10 | < 10 | > 25 | > 25 | CCn1cc(C(F)(F)F)nc1-c1ccc([C@@H](C)N2C(=O)CCn3nc(-c4c(Cl)cnn4C(C)C)cc32)cn1 [Example 139] |
| < 0.1 | < 0.1 | ≥ 10 | < 10 | > 25 | > 25 | CCn1cc(C(F)(F)F)nc1-c1c(F)cc(CN2C(=O)CCn3nc(-c4c(OC)ncnc4C4CC4)cc32)cc1OC [Example 140] |
| < 0.1 | < 0.1 | < 10 | < 10 | > 25 | > 25 | CCn1cc(C(F)(F)F)nc1-c1c(F)cc(CN2C(=O)CCn3nc(-c4c(Cl)cnn4C(C)C)cc32)cc1OC [Example 141] |
| 0.1 to 0.5 | 0.1 to 0.5 | ≥ 10 | < 10 | < 25 | > 25 | CCn1cc(C(F)(F)F)nc1-c1ccc([C@H](C)N2C(=O)CCn3nc(-c4c(OC)ncnc4C4CC4)cc32)cc1F [Example 142] |
| < 0.1 | < 0.1 | ≥ 10 | ≥ 10 | > 25 | > 25 | CCn1cc(C(F)(F)F)nc1-c1ccc([C@@H](C)N2C(=O)CCn3nc(-c4c(OC)ncnc4C4CC4)cc32)cc1F [Example 143] |
| < 0.1 | < 0.1 | ≥ 10 | < 10 | > 25 | > 25 | COc1cc(CN2C(=O)CCn3nc(-c4c(OC)ncnc4C4CC4)cc32)cc(F)c1-c1nc(C(F)(F)F)cn1C(C)C [Example 144] |
| < 0.1 | < 0.1 | < 10 | < 10 | < 25 | < 25 | CCn1cc(C(F)(F)F)nc1-c1c(Cl)cc(CN2C(=O)CCn3nc(-c4c(OC)ncnc4C4CC4)cc32)cc1OC [Example 145] |
| < 0.1 | < 0.1 | < 10 | < 10 | < 25 | < 25 | Cc1cnn(C(C)C)c1-c1nn2c(c1Cl)N(Cc1ccc(-c3nc(C(F)(F)F)cn3C)cc1)CCC2 [Example 147, 3-chloro-2-(1-isopropyl-4-methyl-1H-pyrazol-5-yl)-4-(4-(1-methyl-4-(trifluoromethyl)-1H-imidazol-2-yl)benzyl)-4,5,6,7-tetrahydropyrazolo[1,5-α]pyrimidine] |
| < 0.1 | < 0.1 | < 10 | < 10 | < 25 | < 25 | Cc1cnn(C(C)C)c1-c1nn2c(c1Cl)N(Cc1ccc(-c3nc(C(F)(F)F)cn3C(C)C)c(F)c1)CCC2 [Example 148] |
| < 0.1 | < 0.1 | < 10 | < 10 | < 25 | < 25 | CCn1cc(C(F)(F)F)nc1-c1ccc(CN2C(=O)CCn3nc(-c4c(Cl)cnn4C(C)COC)cc32)cc1 (stereo not drawn) [Example 151] |
